Test results as given in patent publication US11304929B2, “Tosylacetate based compounds and derivatives thereof as PHGDH inhibitors” (priority 2017, dated 2022).
pIC50: −log10 of the molar value.

What follows are compounds tested against PHGDH (Homo sapiens (Human), UniProt O43175) (assay: 3-Phosphoglycerate Dehydrogenase (PHGDH) Fluorescence Intensity Assay, run at two NAD/3-PG ratios: PHGDH_HIGH_NAD/3-PG (250 μM NAD/500 μM 3-PG) and PHGDH_500_NAD/3-PG (500 μM NAD/500 μM 3-PG)). Settings: 250 μM NAD/500 μM 3-PG; read-out: IC50 (PHGDH_HIGH_NAD/3-PG).
Assay type: biochemical

Chain of PHGDH (O43175 2-533 limits assumed): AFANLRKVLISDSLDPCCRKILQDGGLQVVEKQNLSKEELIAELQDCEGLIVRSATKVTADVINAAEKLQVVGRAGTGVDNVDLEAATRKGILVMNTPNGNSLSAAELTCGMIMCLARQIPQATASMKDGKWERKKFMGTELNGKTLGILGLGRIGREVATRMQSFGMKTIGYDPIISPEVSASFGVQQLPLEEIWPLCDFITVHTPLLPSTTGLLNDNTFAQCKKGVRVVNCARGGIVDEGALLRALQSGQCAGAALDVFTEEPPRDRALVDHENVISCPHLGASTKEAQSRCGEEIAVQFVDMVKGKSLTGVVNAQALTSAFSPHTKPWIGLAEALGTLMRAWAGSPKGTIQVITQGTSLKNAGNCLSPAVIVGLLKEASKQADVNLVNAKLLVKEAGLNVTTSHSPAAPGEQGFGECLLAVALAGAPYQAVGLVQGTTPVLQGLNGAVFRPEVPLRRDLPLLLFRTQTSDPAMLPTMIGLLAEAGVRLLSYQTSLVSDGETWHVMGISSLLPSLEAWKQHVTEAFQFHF

Compared with `C[C@@H](NC(=O)c1cc(-c2ccccc2)nn1C)c1ccc(S(=O)(=O)CC(=O)O)cc1` [Example 04-001, 2-{4-[(1R)-1-[(1-methyl-3-phenyl-1H-pyrazol-5-yl)formamido]ethyl]benzenesulfonyl}acetic acid], `C[C@@H](NC(=O)c1cc(-c2ccc(F)cc2)nn1C)c1ccc(S(=O)(=O)CC(=O)O)cc1` [Example 04-002, 2-{4-[(1R)-1-{[3-(4-fluorophenyl)-1-methyl-1H-pyrazol-5-yl]formamido}ethyl]benzenesulfonyl}acetic acid] is 0.28 log units higher in pIC50: 6.84 for the first, 7.12 for the second.

Going from `C[C@@H](NC(=O)c1cc(-c2cccc3cc[nH]c23)nn1C)c1ccc(S(=O)(=O)CC(=O)O)cc1` [Example 04-003, 2-{4-[(1R)-1-{[3-(1H-indol-7-yl)-1-methyl-1H-pyrazol-5-yl]formamido}ethyl]benzenesulfonyl}acetic acid] to `Cn1nc(-c2ccc(F)cc2)cc1C(=O)N[C@H](CO)c1ccc(S(=O)(=O)CC(=O)O)cc1` [Example 04-004, 2-{4-[(1S)-1-{[3-(4-fluorophenyl)-1-methyl-1H-pyrazol-5-yl]formamido}-2-hydroxyethyl]benzenesulfonyl}acetic acid], the pIC50 falls from 7.28 to 6.76 (0.52 log units). The first is the more potent here.

First: COC(=O)C(C)(C)S(=O)(=O)c1ccc([C@@H](C)NC(=O)c2cc3cc(Cl)ccc3n2C)cc1 [Example 05-002, methyl 2-{4-[(1R)-1-[(5-chloro-1-methyl-1H-indol-2-yl)formamido]ethyl]benzenesulfonyl}-2-methylpropanoate]
Second: C[C@@H](NC(=O)c1cc2cc(Cl)ccc2n1C)c1ccc(S(=O)(=O)C(C)(C)C(=O)O)cc1 [Example 07-007, 2-{4-[(1R)-1-[(5-chloro-1-methyl-1H-indol-2-yl)formamido]ethyl]benzenesulfonyl}-2-methylpropanoic acid]
The pIC50 of the first is 2.20 log units lower: 4.48 for the first, 6.68 for the second.

Compared with `COC(=O)C(C)S(=O)(=O)c1ccc([C@@H](C)NC(=O)c2cc3cc(Cl)ccc3n2C)cc1` (stereo partly drawn) [Example 05-006, methyl 2-{4-[(1R)-1-[(5-chloro-1-methyl-1H-indol-2-yl)formamido]ethyl]benzenesulfonyl}propanoate], `C[C@@H](NC(=O)c1cc2cc(Cl)ccc2n1C)c1ccc(S(=O)(=O)[C@@H](C)C(=O)O)cc1` [Example 07-006, (2S)-2-{4-[(1R)-1-[(5-chloro-1-methyl-1H-indol-2-yl)formamido]ethyl]benzenesulfonyl}propanoic acid] is 1.10 log units higher in pIC50: 5.52 for the first, 6.62 for the second. The second is the more potent here.

`COC(=O)C(C)(C)S(=O)(=O)c1ccc([C@@H](C)NC(=O)c2cc3c(Cl)cc(C)cc3n2C)cc1` [Example 05-007, methyl 2-{4-[(1R)-1-[(4-chloro-1,6-dimethyl-1H-indol-2-yl)formamido]ethyl]benzenesulfonyl}-2-methylpropanoate] and `COC(=O)C(C)(C)S(=O)(=O)c1ccc([C@@H](C)NC(=O)c2cc3c(Cl)c(Cl)c(C)cc3n2C)cc1` [Example 05-022, methyl 2-{4-[(1R)-1-[(4,5-dichloro-1,6-dimethyl-1H-indol-2-yl)formamido]ethyl]benzenesulfonyl}-2-methylpropanoate] are within 0.2 log units of each other in pIC50: 5.34 for the first, 5.25 for the second.

Going from `COC(=O)C1(S(=O)(=O)c2ccc([C@@H](C)NC(=O)c3cc4c(Cl)cc(C)cc4n3C)cc2)CCCC1` [Example 05-008, methyl 1-{4-[(1R)-1-[(4-chloro-1,6-dimethyl-1H-indol-2-yl)formamido]ethyl]benzenesulfonyl}cyclopentane-1-carboxylate] to `Cc1cc(Cl)c2cc(C(=O)N[C@H](C)c3ccc(S(=O)(=O)C4(C(=O)O)CCCC4)cc3)n(C)c2c1` [Example 07-004, 1-{4-[(1R)-1-[(4-chloro-1,6-dimethyl-1H-indol-2-yl)formamido]ethyl]benzenesulfonyl}cyclopentane-1-carboxylic acid], the pIC50 rises from 4.74 to 8.22 (3.48 log units). The second is the more potent here.

Compared with `CCCC(C(=O)OC)S(=O)(=O)c1ccc([C@@H](C)NC(=O)c2cc3c(Cl)cc(C)cc3n2C)cc1` (stereo partly drawn) [Example 05-015, methyl 2-{4-[(1R)-1-[(4-chloro-1,6-dimethyl-1H-indol-2-yl)formamido]ethyl]benzenesulfonyl}pentanoate], `COCCC(C(=O)O)S(=O)(=O)c1ccc([C@@H](C)NC(=O)c2cc3c(Cl)cc(C)cc3n2C)cc1` (stereo partly drawn) [Example 07-010, 2-{4-[(1R)-1-[(4-chloro-1,6-dimethyl-1H-indol-2-yl)formamido]ethyl]benzenesulfonyl}-4-methoxybutanoic acid] is 2.22 log units higher in pIC50: 5.46 for the first, 7.68 for the second. The second is the more potent here.

`CCOC(=O)C(C)(C)S(=O)(=O)c1ccc([C@@H](C)NC(=O)c2cc3c(Cl)c(Cl)c(C)nc3n2C)cc1` [Example 05-016, ethyl 2-{4-[(1R)-1-({4,5-dichloro-1,6-dimethyl-1H-pyrrolo[2,3-b]pyridin-2-yl}formamido)ethyl]benzenesulfonyl}-2-methylpropanoate] and `COC(=O)C(C)(C)S(=O)(=O)c1ccc([C@@H](C)NC(=O)c2cc3c(Cl)c(Cl)c(C)nc3n2C)cc1` [Example 05-020, methyl 2-{4-[(1R)-1-({4,5-dichloro-1,6-dimethyl-1H-pyrrolo[2,3-b]pyridin-2-yl}formamido)ethyl]benzenesulfonyl}-2-methylpropanoate] cannot be ordered by pIC50: < 4.00 for the first, < 4.70 for the second.

Going from `COC(=O)C1(S(=O)(=O)c2ccc([C@@H](CO)NC(=O)c3cc4c(Cl)cc(C)cc4n3C)cc2)CCOCC1` [Example 05-021, methyl 4-{4-[(1S)-1-[(4-chloro-1,6-dimethyl-1H-indol-2-yl)formamido]-2-hydroxyethyl]benzenesulfonyl}oxane-4-carboxylate] to `Cc1cc(Cl)c2cc(C(=O)N[C@H](C)c3ccc(S(=O)(=O)C(C)C(=O)O)cc3)n(C)c2c1` (stereo partly drawn) [Example 07-003, 2-{4-[(1R)-1-[(4-chloro-1,6-dimethyl-1H-indol-2-yl)formamido]ethyl]benzenesulfonyl}propanoic acid], the pIC50 rises from 5.61 to 8.10 (2.49 log units). The second is the more potent here.

`COC(=O)C1(S(=O)(=O)c2ccc([C@@H](C)NC(=O)c3cc(-c4ccc(F)cc4)nn3C)cc2)CCCC1` [Example 06-003, methyl 1-{4-[(1R)-1-{[3-(4-fluorophenyl)-1-methyl-1H-pyrazol-5-yl]formamido}ethyl]benzenesulfonyl}cyclopentane-1-carboxylate] and `COC(=O)C(C)(C)S(=O)(=O)c1ccc([C@@H](CO)NC(=O)c2cc(-c3ccc(F)cc3)nn2C)cc1` [Example 06-008, methyl 2-{4-[(1S)-1-{[3-(4-fluorophenyl)-1-methyl-1H-pyrazol-5-yl]formamido}-2-hydroxyethyl]benzenesulfonyl}-2-methylpropanoate] are within 0.2 log units of each other in pIC50: 4.93 for the first, 5.08 for the second.

Compared with `CC(C)OC(=O)C(C)S(=O)(=O)c1ccc([C@@H](C)NC(=O)c2cc(-c3ccccc3)nn2C)cc1` (stereo partly drawn) [Example 06-004, propan-2-yl 2-{4-[(1R)-1-[(1-methyl-3-phenyl-1H-pyrazol-5-yl)formamido]ethyl]benzenesulfonyl}propanoate], `CC(C)OC(=O)C(C)(C)S(=O)(=O)c1ccc([C@@H](C)NC(=O)c2cc(-c3ccccc3)nn2C)cc1` [Example 06-005, propan-2-yl 2-methyl-2-{4-[(1R)-1-[(1-methyl-3-phenyl-1H-pyrazol-5-yl)formamido]ethyl]benzenesulfonyl}propanoate] is 0.69 log units higher in pIC50: 4.11 for the first, 4.80 for the second.

Compared with `CC(C)OC(=O)C(C)(C)S(=O)(=O)c1ccc([C@@H](CO)NC(=O)c2cc(-c3ccc(F)cc3)nn2C)cc1` [Example 06-006, propan-2-yl 2-{4-[(1S)-1-{[3-(4-fluorophenyl)-1-methyl-1H-pyrazol-5-yl]formamido}-2-hydroxyethyl]benzenesulfonyl}-2-methylpropanoate], `CC(C)OC(=O)C(C)S(=O)(=O)c1ccc([C@@H](CO)NC(=O)c2cc(-c3ccc(F)cc3)nn2C)cc1` (stereo partly drawn) [Example 06-007, propan-2-yl 2-{4-[(1S)-1-{[3-(4-fluorophenyl)-1-methyl-1H-pyrazol-5-yl]formamido}-2-hydroxyethyl]benzenesulfonyl}propanoate] is 0.31 log units lower in pIC50: 4.84 for the first, 4.53 for the second. The first is the more potent here.

`CCC(CC)(C(=O)O)S(=O)(=O)c1ccc([C@@H](C)NC(=O)c2cc3c(Cl)cc(C)cc3n2C)cc1` [Example 07-001, 2-{4-[(1R)-1-[(4-chloro-1,6-dimethyl-1H-indol-2-yl)formamido]ethyl]benzenesulfonyl}-2-ethylbutanoic acid] and `CCC(C(=O)O)S(=O)(=O)c1ccc([C@@H](C)NC(=O)c2cc3c(Cl)cc(C)cc3n2C)cc1` (stereo partly drawn) [Example 07-011, 2-{4-[(1R)-1-[(4-chloro-1,6-dimethyl-1H-indol-2-yl)formamido]ethyl]benzenesulfonyl}butanoic acid] are within 0.2 log units of each other in pIC50: 8.00 for the first, 7.96 for the second.

`C[C@H](C(=O)O)S(=O)(=O)c1ccc([C@@H](C)NC(=O)c2cc3cc(Cl)ccc3n2C)cc1` [Example 07-008, (2R)-2-{4-[(1R)-1-[(5-chloro-1-methyl-1H-indol-2-yl)formamido]ethyl]benzenesulfonyl}propanoic acid] and `CC(C(=O)O)S(=O)(=O)c1ccc([C@@H](C)NC(=O)c2cc3cc(Cl)ccc3n2C)cc1` (stereo partly drawn) [Example 07-009, 2-{4-[(1R)-1-[(5-chloro-1-methyl-1H-indol-2-yl)formamido]ethyl]benzenesulfonyl}propanoic acid] are within 0.2 log units of each other in pIC50: 6.86 for the first, 6.72 for the second.

Same assay, conditions: 500 μM NAD/500 μM 3-PG; read-out: IC50 (PHGDH_500_NAD/3-PG)

First: C[C@@H](NC(=O)c1cc(-c2cccc3cc[nH]c23)nn1C)c1ccc(S(=O)(=O)CC(=O)O)cc1 [Example 04-003, 2-{4-[(1R)-1-{[3-(1H-indol-7-yl)-1-methyl-1H-pyrazol-5-yl]formamido}ethyl]benzenesulfonyl}acetic acid]
Second: Cn1nc(-c2ccc(F)cc2)cc1C(=O)N[C@H](CO)c1ccc(S(=O)(=O)CC(=O)O)cc1 [Example 04-004, 2-{4-[(1S)-1-{[3-(4-fluorophenyl)-1-methyl-1H-pyrazol-5-yl]formamido}-2-hydroxyethyl]benzenesulfonyl}acetic acid]
The pIC50 of the first is 0.54 log units higher: 7.06 for the first, 6.52 for the second. The first is the more potent here.

First: Cc1cc2c(cc(C(=O)N[C@H](C)c3ccc(S(=O)(=O)C4CCOC4=O)cc3)n2C)c(Cl)c1Cl (stereo partly drawn) [Example 05-023, 4,5-dichloro-1,6-dimethyl-N-[(1R)-1-{4-[(2-oxooxolan-3-yl)sulfonyl]phenyl}ethyl]-1H-indole-2-carboxamide]
Second: Cc1cc2c(cc(C(=O)N[C@H](C)c3ccc(S(=O)(=O)C4CCCOC4=O)cc3)n2C)c(Cl)c1Cl (stereo partly drawn) [Example 05-025, 4,5-dichloro-1,6-dimethyl-N-[(1R)-1-{4-[(2-oxooxan-3-yl)sulfonyl]phenyl}ethyl]-1H-indole-2-carboxamide]
The pIC50 of the first is 0.78 log units lower: 6.92 for the first, 7.70 for the second. The second is the more potent here.

Going from `Cc1cc2c(cc(C(=O)N[C@H](C)c3ccc(S(=O)(=O)C4CCOC4=O)cc3)n2C)c(F)c1F` (stereo partly drawn) [Example 05-024, 4,5-difluoro-1,6-dimethyl-N-[(1R)-1-{4-[(2-oxooxolan-3-yl)sulfonyl]phenyl}ethyl]-1H-indole-2-carboxamide] to `CCC(CC)(C(=O)O)S(=O)(=O)c1ccc([C@@H](C)NC(=O)c2cc3c(Cl)cc(C)cc3n2C)cc1` [Example 07-001, 2-{4-[(1R)-1-[(4-chloro-1,6-dimethyl-1H-indol-2-yl)formamido]ethyl]benzenesulfonyl}-2-ethylbutanoic acid], the pIC50 rises from 6.92 to 7.85 (0.93 log units).
